In EP4711470A1, “METHOD AND KIT FOR EVALUATING ENZYME ACTIVITY” (The University of Tokyo, priority 2023, dated 2025):

Columns and labels:
[1] = test system: lactate dehydrogenase; test: Single-molecule coupled assay of lactate dehydrogenase oxidative activity in human plasma (microchamber array); format: biochemical; conditions: for S/N ratio compared with SiRWST-3 or Q-dsAMC as fluorescent probe: same experiment, with SiRWST-3, 100 µM 1-MeO-PMS in place of NADH:quinone oxidoreductase
Protocol: To a HEPES buffer (100 mM, pH 7.4) containing CaCl2 (1 mM), MgCl2 (1 mM), DTT (dithiothreitol, 100 µM), and Triton X-100 (200 µM), Q-sHMRG (30 µM), Q-HMRG (30 µM) or resazurin (30 µM), lactate (1 mM), NAD^+ (oxidized nicotinamide adenine dinucleotide, 500 µM), and NADH:quinone oxidoreductase (50 µg/mL, Toyobo, DAD-311) were added. Then, plasma obtained from a healthy human subject was added to give a 3000-fold dilution (preparation step, Step (A)). 40 µL of the solution (a pre-encapsulation aqueous solution) thus prepared was introduced into a microchamber array Simoa (registered trademark) disk (Quanterix). Subsequently, 80 µL of Fluorinert (registered trademark) FC-70 (Sigma-Aldrich) as a hydrophobic solvent was introduced into the microchamber array to remove an aqueous solution not introduced into wells, and thereby W/O droplets were formed in wells. After incubation at room temperature for 3 hours (reaction step, Step (B)), fluorescence images were acquired by an epifluorescence microscope Ti2 (Nikon) equipped with a 20× objective lens (Plan Apo 20×), an sCMOS camera (ORCA-Fusion C14440, Hamamatsu Photonics), a white light unit (X-Cite Xylis, Opto Science), and a motorized stage (fluorescence measurement step, Step (C)).

[2] = test system: NADH:quinone oxidoreductase; test: Reactivity of Q-sHMRG with DT-diaphorase and increase in fluorescence; format: biochemical, microorganism; conditions: 1 µM probe, HEPES buffer pH 7.4, 25°C
Protocol: Q-sHMRG prepared in Synthesis Example 1 was dissolved to give a final concentration of 1 µM in a HEPES buffer (100 mM, pH 7.4) containing CaCl2 (1 mM), MgCl2 (1 mM), DTT (dithiothreitol, 100 µM), and Triton X-100 (250 µM), and an absorption spectrum was measured. Then, NADH (100 µM) and NADH:quinone oxidoreductase (10 µg/mL, Toyobo, DAD-311) were added, and after incubation at 25°C for 4 hours, an absorption spectrum was measured again. Results are shown in (A) of FIG. 1.
Also, Q-sHMRG prepared in Synthesis Example 1 was dissolved to give a final concentration of 1 µM in a HEPES buffer (100 mM, pH 7.4) containing CaCl2 (1 mM), MgCl2 (1 mM), DTT (dithiothreitol, 100 µM), and Triton X-100 (250 µM), and then NADH at various concentrations and NADH:quinone oxidoreductase (10 µg/mL) were added. After incubation at 25°C for 30 minutes, fluorescence intensity was measured. Results are shown in (B) and (C) of FIG. 1.

[3] = Fluorescence characteristics of reduction products; conditions: may be values measured in PBS at pH 7.4
Text: These fluorescence characteristics may be values measured, for example, in phosphate-buffered saline (PBS) at pH 7.4.

Row | SMILES | ratio (S/N ratio) of fluorescence intensity of a well encapsulating lactate dehydrogenase to a well not encapsulating it ([1]; 30 µM probe, lactate 1 mM, NAD+ 500 µM, plasma 3000-fold dilution, 3 hours, compared among Q-sHMRG, Q-HMRG and resazurin) | S/N ratio compared with SiRWST-3 or Q-dsAMC as fluorescent probe [1] | fluorescence intensity increased by a reduction reaction by NADH:quinone oxidoreductase ([2]; NADH, NADH:quinone oxidoreductase 10 µg/mL (DAD-311)) [fold] | lowest quantity of NADH that the combination of probe and NADH:quinone oxidoreductase can detect ([2]; NADH:quinone oxidoreductase 10 µg/mL, 30 minutes) [µM] | molar extinction coefficient ([3]; at maximum absorption wavelength) [L/mol/cm] | fluorescence quantum yield [3] | mathematical product of molar extinction coefficient and fluorescence quantum yield [3] | maximum absorption wavelength [3] [nm] | maximum fluorescence wavelength [3] [nm]
1 | CC1=C(C)C(=O)C(C(C)(C)CC(=O)Nc2ccc3c(c2)Oc2cc(N)ccc2C32OCc3ccc(S(=O)(=O)O)cc32)=C(C)C1=O (stereo not shown) [Q-sHMRG] | greater | larger | 235 | 0.01 |  |  |  |  | 
2 | O=c1ccc2[n+]([O-])c3ccc(O)cc3oc-2c1 [resazurin, reference compound] |  | larger |  |  |  |  |  |  | 
3 | N=c1ccc2c(-c3ccc(S(=O)(=O)O)cc3CO)c3ccc(N)cc3oc-2c1 [sHMRG, 3',6'-diamino-3H-spiro[isobenzofuran-1,9'-xanthene]-5/6-sulfonic acid] |  |  |  |  | 80000 | 0.92 | 74000 | 498 | 517
